Data published in US20250345321A1, “CATEQUENTINIB (ANLOTINIB) IN SEQUENTIAL COMBINATION WITH IMMUNOTHERAPY FOR USE IN THE TREATMENT OF CANCER” (ADVENCHEN PHARMACEUTICALS, LLC, priority 2019, published 2025).
Counter-ions that a name gives are not always drawn.

How the values were obtained:
FGFR1 = FGFR1 (Homo sapiens, UniProt P11362); conditions: cited from earlier work
tumor = conditions: mouse model, disclosed in earlier filing; cited from earlier work
[1] = system: recurrent or advanced endometrial, ovarian, and cervical cancer; test: Phase 1 efficacy of AL3818 with standard platinum-based chemotherapy (best response); format: in vivo, human; design: key to Best response: stable disease (SD); partial response (PR); complete response (CR)
Source text: Patients in this trial were females with recurrent or advanced endometrial, ovarian, and cervical cancer.
In this described study, all patients received at least one dose of AL3818 dihydrochloride orally. Aside of three patients were permanent discharged from this study due to severe adverse events (SAE), the other six patients' best response ranged from stable disease (SD) (⅙, 16.7%), partial response (PR) ( 4/6, 66.6%) to complete response (CR) (⅙, 16.7%).
1. The daily dosage of compound AL3818 was the initial dosage that administrated to the patients, which might subject to a dosage reduction if serious side-effects were observed.
2. The best response represented the most favorable outcome during the entire treatment, regardless of the possible disease progression (PD) after that.

[2] = Phase 1 chemo combination dosing de-escalation trial: safety, tolerability, DLT events
Source text: A Phase 1 trial was designed to determine the recommended phase 2 dose (RP2D) for part 2 (phase 2a) of the study.
In this presented chemo combination therapy regimen, in the first day of the 21-day cycle, standard platinum-based chemotherapeutic agents were administrated intravenously to the patients. […] 1-6 cycles of chemotherapy were applied for each individual patient.
After the intravenous (IV) chemotherapy on the Day 1, Day 2 to Day 7 was the therapy free period.
From Day 22 (C2D1) (CXDY is the abbreviation for Cycle X Day Y. For example, C2D1 represents Cycle 2 Day 1), a new cycle began, paclitaxel and carboplatin (or cisplatin for cervical cancer) were administrated to the patients and Day 23 to Day 28 (C2D2 • C2D7) was the therapy free period again.
The first 21-day cycle plus 7 days (C1D1-C2D8 or Day 1 to Day28) was crucial in this regimen and it was called the primary safety evaluation period. The recommended phase 2 dose (RP2D) was obtained by evaluating according to the standard for the dose limiting toxicity (DLT) events of patients in this period of time.
This evaluation period could be extended to the end of second cycle for the patients who passed the primary safety evaluation period.
In this embodiment, if any serious dose limiting toxicity (DLT) events or other serious side effects occurred, according to the serious level, the patients might require to withdraw the treatment, reduce the dose of medication or switch to other medications.

FGFR3 = FGFR3 (Homo sapiens, UniProt P22607); conditions: cited from earlier work
VEGFR1 = VEGFR1 (Homo sapiens, UniProt P17948); conditions: cited from earlier work
Sequence of VEGFR1 (P17948 27-1338): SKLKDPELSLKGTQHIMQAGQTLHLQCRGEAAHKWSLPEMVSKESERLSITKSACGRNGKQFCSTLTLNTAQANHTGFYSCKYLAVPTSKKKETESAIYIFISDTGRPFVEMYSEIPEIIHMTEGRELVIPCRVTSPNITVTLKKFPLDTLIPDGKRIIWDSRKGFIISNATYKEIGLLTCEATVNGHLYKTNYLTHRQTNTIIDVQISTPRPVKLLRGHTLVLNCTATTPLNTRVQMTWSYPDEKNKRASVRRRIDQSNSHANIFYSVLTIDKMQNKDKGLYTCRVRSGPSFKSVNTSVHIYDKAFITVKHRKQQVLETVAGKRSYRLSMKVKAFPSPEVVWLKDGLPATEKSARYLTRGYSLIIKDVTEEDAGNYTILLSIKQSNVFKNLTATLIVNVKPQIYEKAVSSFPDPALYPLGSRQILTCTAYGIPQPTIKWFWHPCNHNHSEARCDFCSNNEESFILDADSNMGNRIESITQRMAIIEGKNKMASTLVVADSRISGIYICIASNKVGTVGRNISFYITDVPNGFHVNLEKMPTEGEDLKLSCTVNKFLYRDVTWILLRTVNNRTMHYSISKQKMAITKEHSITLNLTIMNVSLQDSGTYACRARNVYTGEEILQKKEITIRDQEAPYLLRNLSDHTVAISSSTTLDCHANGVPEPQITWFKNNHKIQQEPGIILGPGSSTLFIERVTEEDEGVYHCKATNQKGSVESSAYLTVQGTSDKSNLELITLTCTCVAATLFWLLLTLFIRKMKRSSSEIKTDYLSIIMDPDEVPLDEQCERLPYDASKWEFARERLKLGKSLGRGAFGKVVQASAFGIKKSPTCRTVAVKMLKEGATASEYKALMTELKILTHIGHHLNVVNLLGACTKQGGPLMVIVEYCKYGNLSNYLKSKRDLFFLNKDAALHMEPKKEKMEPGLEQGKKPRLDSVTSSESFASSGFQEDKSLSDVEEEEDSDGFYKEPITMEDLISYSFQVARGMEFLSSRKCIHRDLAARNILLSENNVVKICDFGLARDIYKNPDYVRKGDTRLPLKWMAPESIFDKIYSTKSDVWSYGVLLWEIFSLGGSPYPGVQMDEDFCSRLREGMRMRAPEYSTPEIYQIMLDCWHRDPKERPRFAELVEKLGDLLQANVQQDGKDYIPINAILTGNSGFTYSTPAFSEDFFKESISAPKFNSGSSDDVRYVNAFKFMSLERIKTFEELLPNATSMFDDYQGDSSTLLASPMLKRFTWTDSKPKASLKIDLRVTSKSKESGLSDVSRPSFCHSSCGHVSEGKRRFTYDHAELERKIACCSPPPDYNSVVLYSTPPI

VEGFR3 = VEGFR3 (Homo sapiens, UniProt P35916); conditions: cited from earlier work
Sequence of VEGFR3 (P35916 25-1363): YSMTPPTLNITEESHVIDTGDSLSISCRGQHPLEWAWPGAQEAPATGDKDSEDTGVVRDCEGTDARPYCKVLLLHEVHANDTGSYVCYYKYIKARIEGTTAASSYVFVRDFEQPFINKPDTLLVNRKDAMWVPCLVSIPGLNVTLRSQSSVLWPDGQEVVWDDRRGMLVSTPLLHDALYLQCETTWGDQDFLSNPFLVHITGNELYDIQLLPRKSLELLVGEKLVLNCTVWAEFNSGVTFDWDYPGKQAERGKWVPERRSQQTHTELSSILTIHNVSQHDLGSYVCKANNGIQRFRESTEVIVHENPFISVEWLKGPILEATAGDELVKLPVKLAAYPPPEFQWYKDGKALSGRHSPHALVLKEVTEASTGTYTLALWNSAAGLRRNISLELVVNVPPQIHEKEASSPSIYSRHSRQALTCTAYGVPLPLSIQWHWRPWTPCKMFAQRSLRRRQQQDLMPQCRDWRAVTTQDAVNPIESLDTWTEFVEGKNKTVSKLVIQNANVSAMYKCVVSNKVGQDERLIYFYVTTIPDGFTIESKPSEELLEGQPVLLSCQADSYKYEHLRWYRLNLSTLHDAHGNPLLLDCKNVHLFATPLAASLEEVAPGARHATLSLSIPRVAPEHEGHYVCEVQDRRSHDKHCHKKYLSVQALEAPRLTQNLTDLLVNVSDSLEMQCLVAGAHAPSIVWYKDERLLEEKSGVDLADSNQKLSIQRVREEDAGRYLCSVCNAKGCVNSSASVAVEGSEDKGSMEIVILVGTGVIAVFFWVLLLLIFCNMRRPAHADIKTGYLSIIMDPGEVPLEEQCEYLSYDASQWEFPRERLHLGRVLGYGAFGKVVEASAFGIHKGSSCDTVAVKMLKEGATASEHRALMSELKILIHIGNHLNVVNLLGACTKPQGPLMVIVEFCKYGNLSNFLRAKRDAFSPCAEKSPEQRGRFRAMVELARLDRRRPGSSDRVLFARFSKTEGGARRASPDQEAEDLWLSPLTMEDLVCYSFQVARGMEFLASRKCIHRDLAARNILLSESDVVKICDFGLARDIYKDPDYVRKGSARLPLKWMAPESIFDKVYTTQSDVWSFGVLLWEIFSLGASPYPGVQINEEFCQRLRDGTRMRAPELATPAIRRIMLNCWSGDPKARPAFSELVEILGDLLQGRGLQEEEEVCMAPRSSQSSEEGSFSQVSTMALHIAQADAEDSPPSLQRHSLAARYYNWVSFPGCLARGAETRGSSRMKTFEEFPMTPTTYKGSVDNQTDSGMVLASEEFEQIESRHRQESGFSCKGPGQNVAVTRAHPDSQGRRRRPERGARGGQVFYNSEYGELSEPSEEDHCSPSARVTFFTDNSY

VEGFR2/KDR = VEGFR2/KDR (Homo sapiens, UniProt P35968); conditions: cited from earlier work
PDGFR-a = PDGFR-a (Homo sapiens, UniProt P16234); conditions: cited from earlier work
FGFR2 = FGFR2 (Homo sapiens, UniProt P21802); conditions: cited from earlier work
Sequence of FGFR2 (P21802 22-821): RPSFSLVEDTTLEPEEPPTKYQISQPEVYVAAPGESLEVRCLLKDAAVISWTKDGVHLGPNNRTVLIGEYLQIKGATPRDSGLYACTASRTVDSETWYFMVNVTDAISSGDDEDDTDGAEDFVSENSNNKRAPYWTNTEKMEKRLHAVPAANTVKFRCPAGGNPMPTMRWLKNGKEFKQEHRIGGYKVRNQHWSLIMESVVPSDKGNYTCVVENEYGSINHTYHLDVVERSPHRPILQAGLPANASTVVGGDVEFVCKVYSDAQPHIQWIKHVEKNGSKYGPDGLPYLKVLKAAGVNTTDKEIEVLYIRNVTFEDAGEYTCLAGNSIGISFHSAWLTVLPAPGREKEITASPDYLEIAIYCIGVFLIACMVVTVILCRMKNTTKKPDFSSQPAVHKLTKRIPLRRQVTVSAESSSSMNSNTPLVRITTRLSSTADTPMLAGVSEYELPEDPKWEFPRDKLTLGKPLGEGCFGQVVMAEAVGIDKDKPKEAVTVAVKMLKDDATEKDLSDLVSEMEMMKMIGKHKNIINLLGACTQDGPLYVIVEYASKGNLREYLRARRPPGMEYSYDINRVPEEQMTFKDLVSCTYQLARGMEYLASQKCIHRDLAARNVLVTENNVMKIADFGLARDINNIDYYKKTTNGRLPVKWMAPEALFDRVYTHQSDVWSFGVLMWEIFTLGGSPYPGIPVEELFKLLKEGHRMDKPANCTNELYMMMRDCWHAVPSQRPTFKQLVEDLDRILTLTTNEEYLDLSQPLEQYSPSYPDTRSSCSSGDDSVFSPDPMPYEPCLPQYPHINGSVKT

c-KIT = c-KIT (Homo sapiens, UniProt P10721); conditions: cited from earlier work
Sequence of c-KIT (P10721 26-976): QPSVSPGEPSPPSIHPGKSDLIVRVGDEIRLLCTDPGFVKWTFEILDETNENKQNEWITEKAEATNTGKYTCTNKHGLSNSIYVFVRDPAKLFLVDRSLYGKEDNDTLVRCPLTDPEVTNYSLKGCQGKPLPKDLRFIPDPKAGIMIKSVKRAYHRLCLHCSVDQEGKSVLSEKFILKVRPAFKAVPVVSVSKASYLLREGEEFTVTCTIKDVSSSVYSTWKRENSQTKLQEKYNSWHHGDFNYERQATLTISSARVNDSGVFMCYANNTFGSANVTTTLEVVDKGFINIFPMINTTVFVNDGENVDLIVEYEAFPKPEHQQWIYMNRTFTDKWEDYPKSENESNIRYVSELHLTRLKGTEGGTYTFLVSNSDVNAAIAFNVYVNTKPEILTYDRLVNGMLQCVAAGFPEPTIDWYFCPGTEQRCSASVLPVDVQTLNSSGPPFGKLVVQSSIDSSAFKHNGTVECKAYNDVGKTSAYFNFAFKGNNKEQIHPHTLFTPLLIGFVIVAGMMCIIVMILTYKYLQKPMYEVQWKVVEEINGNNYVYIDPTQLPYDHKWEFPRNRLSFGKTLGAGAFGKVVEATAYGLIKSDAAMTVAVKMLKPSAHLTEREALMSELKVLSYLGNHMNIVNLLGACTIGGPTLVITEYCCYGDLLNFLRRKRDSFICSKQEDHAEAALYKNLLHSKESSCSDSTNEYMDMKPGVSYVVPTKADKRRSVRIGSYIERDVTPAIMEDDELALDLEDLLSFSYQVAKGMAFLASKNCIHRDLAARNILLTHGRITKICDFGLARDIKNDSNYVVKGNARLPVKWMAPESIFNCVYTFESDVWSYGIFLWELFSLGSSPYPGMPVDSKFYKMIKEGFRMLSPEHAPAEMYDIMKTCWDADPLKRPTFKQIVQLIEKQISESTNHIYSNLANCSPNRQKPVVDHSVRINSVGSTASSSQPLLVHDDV

[3] = AL3818 combination therapy with Nivolumab Phase I trial (DLT); format: in vivo, human; conditions: 10 mg oral Day 1-14 + Nivolumab 240 mg infusion Day 1 and Day 15 per 28 days; six sarcoma subjects
Source text: AL3818 and Nivolumab administrations are both started on Day 1.
Nivolumab is administrated via infusion on Day 1 and Day 15 for twice per 28 days, 21 days as one cycle will still be applied for the combination therapy. Nivolumab can be administrated via infusion on Day 1 once per 28 days, 21 days as one cycle will still be applied for the combination therapy. AL3818 is administrated orally from Day 1 to Day 14 and off from Day 15 to Day 21 for 21 days as one cycle. Nivolumab is administrated via infusion on Day 1 and Day 15 for twice per 28 days starting dose at 240 mg twice per 28 days. Nivolumab can be optionally administrated via infusion on Day 1 once per 28 days at 480 mg. AL3818 is administrated orally at Day 1-Day 14 at starting dose of 12 mg.
Treatments of subject 001 (liposarcoma), 002 (synovial sarcoma), 003 (angiosarcoma), 004 (leiomyosarcoma), 005 (undifferentiated pleomorphic sarcoma) and 006 (leiomyosarcoma) at 10 mg oral dosing Day 1-14 combing with Nivolumab at Day 1 and Day 15 for twice per 28 days starting dose at 240 mg infusion have been completed with one DLT (subject 002). Dose escalation to 12 mg combination therapies with Nivolumab with cervical cancer subject and other sarcoma subjects are ongoing.

[4] = Phase 2a chemo combination trial: TEAEs and toxicity; format: in vivo, human
Protocol: (§1) Phase 1 was completed in Q1 2017 at one study site to determine the recommend phase 2 dose (RP2D). The RP2D was determined to be AL3818 dihydrochloride 8 mg orally once daily in 21-day cycles (14 days on treatment, 7 days off treatment) on Day 8 to Day 21 of the cycle with platinum-based chemotherapy on Day 1 of the cycle.
(§2) Phase 2a is currently ongoing at four study sites in the U.S. The first subject was enrolled in April 2017. As of December 2018, 48 subjects with recurrent or metastatic endometrial, ovarian, and cervical cancer have been enrolled. 24 subjects are still on treatment and 24 subjects have discontinued treatment. 21 endometrial cancer subjects have been enrolled, 9 subjects have discontinued treatment. 8 subjects discontinued due to disease progression, 1 subject discontinued due to toxicity. 12 subjects remain on treatment.

endometrial cancer = test: Phase 2a efficacy of AL3818 with standard platinum-based chemotherapy, endometrial cancer patients; format: in vivo, human; design: key to Best response: stable disease (SD); partial response (PR); complete response (CR)
Protocol: as §1, §2
Combining Phase 1 and Phase 2a subjects, 24 subjects with endometrial cancer have been enrolled in study AL3818-US-002. 19 subjects have had evaluable responses as of December 2018. There were eight subjects enrolled in Phase 2a of the study as first-line treatment.

ovarian cancer = test: Phase 2a efficacy of AL3818 with standard platinum-based chemotherapy, ovarian cancer patients; format: in vivo, human; design: key: stable disease (SD); partial response (PR); complete response (CR); conditions: single ovarian cancer subjects, 8 mg daily + chemotherapy, December 2018, PtR = platinum resistant
Protocol: as §1, §2

[5] = single subject, ovarian cancer, daily dosage 8 mg + standard paclitaxel and carboplatin
[6] = single subjects, endometrial cancer, daily dosage 8 mg + standard paclitaxel and carboplatin
[7] = single subjects, ovarian cancer, initial daily dosage 12 mg + standard platinum-based chemotherapy
[8] = 21 endometrial cancer subjects enrolled in Phase 2a, December 2018
[9] = endometrial cancer, second- and further-line treatment, eleven subjects

COc1cc2c(Oc3ccc4[nH]c(C)cc4c3F)ccnc2cc1OCC1(N)CC1 [AL3818, (1-[[4-(4-fluoro-2-methyl-1H-indol-5-yloxy)-6-methoxyquinolin-7-yl]oxy]methyl]cyclopropaneamine]
inhibition of FGFR1 (FGFR1): strong inhibitor | anti-tumor effect of combination with chemotherapy agents (tumor): synergistic anti-tumor effects | Best response ([1]; single subject, cervical cancer, initial daily dosage 12 mg + standard platinum-based chemotherapy): NE/SAE | Best response ([1]; single subject, endometrial cancer, initial daily dosage 10 mg + standard platinum-based chemotherapy): PR | Best response [1, 5]: SD | Best response [1, 6]: PR | Best response ([1]; single subjects, ovarian cancer, initial daily dosage 10 mg + standard platinum-based chemotherapy): CR and NE/SAE | Best response [1, 7]: NE/SAE and PR | dose limiting toxicity (DLT) events ([2]; 8 mg daily group, three patients, oral Day 8-21 of 21-day cycle + paclitaxel/carboplatin Day 1): no patient | tolerability of daily dosage of 12 mg ([2]; 12 mg daily together with platinum-based chemotherapy): too high | TEAE abdominal pain ([2]; Phase 1, nine subjects): 2.88% | TEAE alopecia ([2]; Phase 1, nine subjects): 2.91% | TEAE chest pain ([2]; Phase 1, nine subjects): 1.92% | TEAE dehydration ([2]; Phase 1, nine subjects): 1.92% | TEAE diarrhea ([2]; Phase 1, nine subjects): 4.81% | TEAE dizziness ([2]; Phase 1, nine subjects): 2.88% | TEAE fatigue ([2]; Phase 1, nine subjects): 4.81% | TEAE hypertension ([2]; Phase 1, nine subjects): 2.88% | TEAE nausea ([2]; Phase 1, nine subjects): 9.62% | TEAE pulmonary embolism ([2]; Phase 1, nine subjects): 1.92% | TEAE sore throat ([2]; Phase 1, nine subjects): 1.92% | TEAE thrombocytopenia ([2]; Phase 1, nine subjects): 1.94% | TEAE urinary tract infection ([2]; Phase 1, nine subjects): 2.88% | TEAE vomiting ([2]; Phase 1, nine subjects): 5.77% | TEAE weakness generalized ([2]; Phase 1, nine subjects): 2.88% | subjects reporting treatment emergent adverse events (TEAE) ([2]; Phase 1, nine subjects (9/9)): 100% | inhibition of FGFR3 (FGFR3): strong inhibitor | inhibition of VEGFR1 activity (VEGFR1): could inhibit | inhibition of VEGFR3 activity (VEGFR3): could inhibit | inhibition of VEGFR2/KDR activity (VEGFR2/KDR): could inhibit | inhibition of PDGFR-a (PDGFR-a): strong inhibitor | inhibition of FGFR2 (FGFR2): strong inhibitor | inhibition of c-KIT (c-KIT): strong inhibitor | DLT [3]: one DLT

COc1cc2c(Oc3ccc4[nH]c(C)cc4c3F)ccnc2cc1OCC1(N)CC1 [AL3818 dihydrochloride]
share of patients with best response complete response (CR) ([1]; Phase 1, six evaluable patients (1/6)): 16.7% | share of patients with best response partial response (PR) ([1]; Phase 1, six evaluable patients (4/6)): 66.6% | Best response [1, 5]: SD | Best response [1, 6]: PR | Best response [1, 7]: PR | dose limiting toxicity (DLT) events ([2]; 10 mg daily group, three patients, oral Day 8-21 of 21-day cycle + paclitaxel/carboplatin Day 1): one of the patients | dose limiting toxicity (DLT) events during the primary safety evaluation period ([2]; 12 mg daily group, three patients, oral Day 8-21 of 21-day cycle + paclitaxel/carboplatin Day 1): two of the patients out of three | safe daily dosage ([2]; 21-day cycle (14 days on, 7 off) combined with paclitaxel and carboplatin (or cisplatin)): 8 mg | recommended phase 2 dose (RP2D) ([2]; oral once daily Day 8-21 of 21-day cycle with platinum-based chemotherapy Day 1): 8 mg | subjects discontinued due to toxicity [4, 8]: 1 subject | TEAE abdominal pain ([4]; Phase 2a, % of all TEAEs): 4.20% | TEAE alopecia ([4]; Phase 2a, % of all TEAEs): 1.3% | TEAE anaemia ([4]; Phase 2a, % of all TEAEs): 1.8% | TEAE arthralgia ([4]; Phase 2a, % of all TEAEs): 1.6% | TEAE asthenia ([4]; Phase 2a, % of all TEAEs): 2.2% | TEAE back pain ([4]; Phase 2a, % of all TEAEs): 1.5% | TEAE constipation ([4]; Phase 2a, % of all TEAEs): 2.7% | TEAE decreased appetite ([4]; Phase 2a, % of all TEAEs): 2.7% | TEAE diarrhea ([4]; Phase 2a, % of all TEAEs): 6.3% | TEAE dyspnea ([4]; Phase 2a, % of all TEAEs): 1% | TEAE epistaxis ([4]; Phase 2a, % of all TEAEs): 3% | TEAE fatigue ([4]; Phase 2a, % of all TEAEs): 4.5% | TEAE flatulence ([4]; Phase 2a, % of all TEAEs): 1.5% | TEAE headache ([4]; Phase 2a, % of all TEAEs): 3.2% | TEAE hypertension ([4]; Phase 2a, % of all TEAEs): 3.3% | TEAE hypokalemia ([4]; Phase 2a, % of all TEAEs): 1.3% | TEAE hypomagnesaemia ([4]; Phase 2a, % of all TEAEs): 1% | TEAE insomnia ([4]; Phase 2a, % of all TEAEs): 1.3% | TEAE nausea ([4]; Phase 2a, % of all TEAEs): 4.7% | TEAE neuropathy peripheral ([4]; Phase 2a, % of all TEAEs): 2% | TEAE neutropenia ([4]; Phase 2a, % of all TEAEs): 2% | TEAE neutrophil count decreased ([4]; Phase 2a, % of all TEAEs): 1% | TEAE pain in extremity ([4]; Phase 2a, % of all TEAEs): 1.7% | TEAE pyrexia ([4]; Phase 2a, % of all TEAEs): 1.2% | TEAE thrombocytopenia ([4]; Phase 2a, % of all TEAEs): 1.7% | TEAE urinary tract infection ([4]; Phase 2a, % of all TEAEs): 1.3% | TEAE vomiting ([4]; Phase 2a, % of all TEAEs): 2.8% | TEAE weight decreased ([4]; Phase 2a, % of all TEAEs): 1% | subjects discontinued due to disease progression (endometrial cancer; [8]): 8 subjects | partial responses (PR) as best responses (endometrial cancer; endometrial cancer, first-line treatment, eight subjects): five partial responses | Objective response rate (ORR) (endometrial cancer; endometrial cancer, first-line treatment, eight subjects Phase 2a (5/8)): 62.5% | disease control rate (DCR) (endometrial cancer; endometrial cancer, first-line treatment, eight subjects Phase 2a (6/8)): 75% | complete response (CR) as best responses (endometrial cancer; [9]): one complete response | partial responses (PR) as best responses (endometrial cancer; [9]): five partial responses | disease control rate (DCR) (endometrial cancer; endometrial cancer, second- and further-line treatment, eleven subjects (9/11)): 82% | Objective response rate (ORR) (endometrial cancer; endometrial cancer, second- and further-line treatment, eleven subjects Phase 1 and 2a (6/11)): 54.5% | Best response (endometrial cancer; single endometrial cancer subjects, Phase 2a, 8 mg daily + paclitaxel/carboplatin, December 2018): CR and PR and SD | Best Response (% reduction) (ovarian cancer): SD
